# Laboratory results taken from US20250073284A1, “WEISSELLA CONFUSA, CULTURE METHOD THEREFOR AND USE THEREOF” (SHANGHAI SINGEN PET NUTRITION CO., LTD., priority 2021, published 2025).
# System: strain WSG1
# Experiment: Susceptibility evaluation, K-B method (zones of inhibition of antibiotics)
# Assay type: cell-based, Weissella confusa
# Settings: antibiotic against strain WSG1, K-B method
row,Compound,Diameter of zone of inhibition [mm]
1,"CC1(C)S[C@@H]2[C@H](NC(=O)[C@H](N)c3ccc(O)cc3)C(=O)N2[C@H]1C(=O)O [Amoxicillin, amoxicillin]",15.0
2,"CC[C@H]1OC(=O)[C@H](C)[C@@H](O[C@H]2C[C@@](C)(OC)[C@@H](O)[C@H](C)O2)[C@H](C)[C@@H](O[C@@H]2O[C@H](C)C[C@H](N(C)C)[C@H]2O)[C@](C)(O)C[C@@H](C)CN(C)[C@H](C)[C@@H](O)[C@]1(C)O [Azithromycin, azithromycin]",15.5
3,"CC1=C(C(=O)O)N2C(=O)[C@@H](NC(=O)[C@H](N)c3ccccc3)[C@H]2SC1 [Cefalexin, cefalexin]",15.5
4,"Cc1nnc(SCC2=C(C(=O)O)N3C(=O)[C@@H](NC(=O)Cn4cnnn4)[C@H]3SC2)s1 [Cefazolin, cefazolin]",19.5
5,"CC1=C(C(=O)O)N2C(=O)[C@@H](NC(=O)[C@H](N)C3=CCC=CC3)[C@H]2SC1 [Cefradine, cefradine]",17.5
6,"CC(=O)OCC1=C(C(=O)O)N2C(=O)[C@@H](NC(=O)Cc3cccs3)[C@H]2SC1 [Cephalothin, cephalothin]",23.5
7,"O=C(N[C@H](CO)[C@H](O)c1ccc([N+](=O)[O-])cc1)C(Cl)Cl [Chloramphenicol, chloramphenicol]",23.5
8,"CCC[C@@H]1C[C@@H](C(=O)N[C@@H]([C@H]2O[C@H](SC)[C@H](O)[C@@H](O)[C@H]2O)[C@H](C)Cl)N(C)C1 [Clindamycin, clindamycin]",23.0
9,"CCN1CCN(c2cc3c(cc2F)c(=O)c(C(=O)O)cn3C2CC2)CC1 [Enrofloxacin, enrofloxacin]",13.5
10,"Cc1onc(-c2ccccc2)c1C(=O)N[C@@H]1C(=O)N2[C@@H]1SC(C)(C)[C@@H]2C(=O)O [Oxacillin, oxacillin]",7.5
11,"CN(C)[C@@H]1C(O)=C(C(N)=O)C(=O)[C@@]2(O)C(O)=C3C(=O)c4c(O)cccc4[C@@](C)(O)[C@H]3C[C@@H]12 [Tetracycline, tetracycline]",19.5
12,"CN[C@H](CC(C)C)C(=O)N[C@H]1C(=O)N[C@@H](CC(N)=O)C(=O)N[C@H]2C(=O)N[C@H]3C(=O)N[C@H](C(=O)N[C@H](C(=O)O)c4cc(O)cc(O)c4-c4cc3ccc4O)[C@H](O)c3ccc(c(Cl)c3)Oc3cc2cc(c3O[C@@H]2O[C@H](CO)[C@@H](O)[C@H](O)[C@H]2O[C@H]2C[C@](C)(N)[C@H](O)[C@H](C)O2)Oc2ccc(cc2Cl)[C@H]1O [Vancomycin, vancomycin]",0.0
13,penicillin,23.5

# System: strain WSG1
# Experiment: Susceptibility evaluation, MIC method
# Assay type: cell-based
# Settings: Weissella confusa; marbofloxacin against strain WSG1
row,Compound,MIC [µg/mL]
1,CN1CCN(c2c(F)cc3c(=O)c(C(=O)O)cn4c3c2OCN4C)CC1 [marbofloxacin],1020
